Test results published in patent publication US5474989A, “Drug composition” (priority 1988, dated 1995).

How the values were obtained:
[1] = chitosan in a form of a solution of acetic acid salt, versus polyvinylpyrrolidone; cited from earlier work
[2] = Solubility of drugs in aqueous solutions of low molecular weight chitosan C-5 (Example 3); conditions: aqueous solution of C-5, varying concentration, 25° C., 10 days
Description: Each 5 mg of vitamin E and vitamin K was accurately weighed (this amount is chosen so as to exceed above the solubility limits of these drugs) and placed in a test tube. […] Each of the solutions which reached dissolution equilibrium was sampled with a pippette fitted with a cotton plug. The sample was filtered through a 0.45 μm membrane filter and the concentration of vitamin E or vitamin K was determined by means of UV-determination after extraction with chloroform.

[3] = Dissolution rate of drug into water, solid dispersion with low molecular weight chitosan C-5 versus drug alone (Example 4); assay type: physicochemical; conditions: drug alone without additive; 10 to 30 mg in 60 ml, 57 rpm, water 37° C.
Description: Each 3 parts by weight of the chitosan products C-0 to C-5 was added to 1 part by weight of flurbiprofen (denoted sometimes hereinafter as FP) and the mixture kneaded with the addition of water in an amount of 2-fold of that of the chitosan product for 1 hour. The kneaded mixture was dried under a reduced pressure at room temperature for 48 hours. A fraction of the particles that passed through 100-mesh standard sieve was employed as the solid dispersion. For each of these solid dispersions, the dissolution rate of FP into water at 37° C. was observed by the procedure given below:
500 ml of water were charged in a dissolution rate measuring device (made by Toyama Sangyo Co., Ltd.) maintained at 37° C. and thereto was further added each of the above solid dispersions in an amount corresponding to 40 mg as FP and the mixture was agitated at 91 rpm. The agitated mixture was sampled each in an amount of 3 ml at a regular time interval with a pipette fitted with a cotton plug. Each sample was filtered through a 0.45 μm membrane filter and the FP concentration of the filtrate was determined after extraction with chloroform.
The rate of dissolution was determined for drug compositions having the low molecular weight chitosan C-5 obtained in Reference Example 1, by observing the concentration of the drug in the same manner as in Example 1 at a regular time interval except that the drug was charged in an amount within the range of from 10 to 30 mg in 60 ml of solution and the agitation was effected at 57 rpm. The ratio of the dissolved amount of drug to the total charged amount of the drug was calculated. Results are summarized in FIGS. 5(A)- 5(G) in a corresponding graph. The experimental results for flurbiprofen are given here again.
The average dissolution time calculated from the rate of dissolution for each drug is recited in Table 3. The calculation of the average dissolution time was made basing on the method given in "Chem. Pharm. Bull.", 30, 1088 (1982).

[4] = Wetting contact angle of water drops on tablet surface (Example 7); assay type: physicochemical; conditions: tablet 2 cm diameter, 50 μl water drop
Description: Examination was effected for the samples of the solid dispersions as obtained in Example 5 and for each drug alone without any additive. The wetting was evaluated by determining the wetting contact angle of water drops on the surface of a tablet having a diameter of 2 cm obtained using an IR tabletting machine with a drop of water of 50 μl.

CO[C@@H]1[C@@H](O[C@@H]2O[C@H](C)[C@@H](O[C@H]3C[C@@](C)(O)[C@@H](OC(=O)CC(C)C)[C@H](C)O3)[C@H](N(C)C)[C@H]2O)[C@@H](CC=O)C[C@@H](C)[C@@H](O)/C=C/C=C/C[C@@H](C)OC(=O)C[C@H]1O [kitasamycin]
effect of chitosan on the dissolution rate of kitasamycin [1]: lower than that of polyvinylpyrrolidone

C[C@H]1C[C@H]2[C@@H]3CCC4=CC(=O)C=C[C@]4(C)[C@@]3(F)[C@@H](O)C[C@]2(C)[C@@]1(O)C(=O)CO [Betamethasone, betamethasone]
dissolution characteristic curve type [2]: dissolution characteristic curve of Bs-type | Average Dissolution Time, Drug alone [3]: 45.9 min

O=C1NC(=O)C(c2ccccc2)(c2ccccc2)N1 [Phenytoin, phenytoin]
solubility of drug with increasing concentration of low molecular weight chitosan [2]: an increase in the solubility of the drug was recognized | Average Dissolution Time, Drug alone [3]: 35.9 min

COc1ccc2c(c1)c(CC(=O)O)c(C)n2C(=O)c1ccc(Cl)cc1 [Indomethacin, indomethacin]
Average Dissolution Time, Drug alone [3]: 24.8 min | Wetting Contact Angle, Drug alone [4]: 50 °

CC(C(=O)O)c1ccc(-c2ccccc2)c(F)c1 (centres unmarked) [Flurbiprofen, flurbiprofen]
Average Dissolution Time, Drug alone [3]: 46.1 min | Wetting Contact Angle, Drug alone [4]: 55 °

C[C@]12C=CC(=O)C=C1CC[C@H]1[C@@H]3C[C@@H](O)[C@](O)(C(=O)CO)[C@@]3(C)C[C@H](O)[C@@]12F [Triamcinolone, triamcinolone]
Average Dissolution Time, Drug alone [3]: 24.3 min | Wetting Contact Angle, Drug alone [4]: 50 °

C[C@]12C=CC(=O)C=C1CC[C@@H]1[C@@H]2[C@@H](O)C[C@@]2(C)[C@H]1CC[C@]2(O)C(=O)CO [Prednisolone, prednisolone]
Average Dissolution Time, Drug alone [3]: 18.7 min

C[C@H]1O[C@@H](O[C@H]2[C@@H](O)C[C@H](O[C@H]3[C@@H](O)C[C@H](O[C@H]4CC[C@@]5(C)[C@H](CC[C@@H]6[C@@H]5C[C@@H](O)[C@]5(C)[C@@H](C7=CC(=O)OC7)CC[C@]65O)C4)O[C@@H]3C)O[C@@H]2C)C[C@H](O)[C@@H]1O [Digoxin, digoxin]
solubility of drug with increasing concentration of low molecular weight chitosan [2]: an increase in the solubility of the drug was recognized | Average Dissolution Time, Drug alone [3]: 40.9 min
